Experimental data reported in PMC3715121 (Journal of natural products, 2009).
Values after ≈ are worked out from the molar mass of the structure shown.

What was measured:
[1] = system: Aspergillus fumigatus ATCC 90906; assay: Antimicrobial assay, A. fumigatus; format: cell-based; details: ATCC90906, read-out: IC50, A. fumigatus
[2] = system: methicillin-resistant Staphylococcus aureus ATCC 43300; assay: Antimicrobial assay, MRSA; format: cell-based; details: ATCC43300|MRSA; for MBC: read-out: MBC, MRSA; for MIC: read-out: MIC, MRSA
[3] = system: P. berghei (NK-65 strain); assay: In vivo antimalarial assay
[4] = system: Mycobacterium intracellulare ATCC 23068; assay: Antimicrobial assay, M. intracellulare; format: cell-based; details: for MIC: ATCC23068, read-out: MIC, M. intracellulare
[5] = system: RBC; assay: Hemolytic activity; details: from IC50 (RBC lysis)
[6] = system: Candida albicans ATCC 90028; assay: Antimicrobial assay, C. albicans; format: cell-based; details: ATCC90028, read-out: IC50, C. albicans
[7] = system: L. donovani promastigotes; assay: Antileishmanial assay; format: cell-based; details: Leishmania donovani, 48 h, read-out: L. donovani IC50
[8] = system: Cryptococcus neoformans ATCC 90113; assay: Antimicrobial assay, C. neoformans; format: cell-based
[9] = system: SK-MEL (human malignant melanoma); assay: Cytotoxicity assay, SK-MEL; format: cell-based; details: 48 h, read-out: IC50 SK-MEL
[10] = system: KB (human epidermoid carcinoma); assay: Cytotoxicity assay, KB; format: cell-based; details: 48 h, read-out: IC50 KB
[11] = system: P. falciparum Sierra Leone D6 (chloroquine-sensitive); assay: Antimalarial/parasite LDH assay, D6 clone; format: cell-based; details: Plasmodium falciparum, D6, 72 h, read-out: P. falciparum D6 IC50

With `C[C@@H]1N[C@H](CCCCCCCCCCc2cc(CCCCCCCCCC[C@@H]3CC[C@@H](O)[C@H](C)N3)c3[n+](c2)CCC3)CC[C@H]1O.[Cl-]` [Compound 6, Prosopilosidine dihydrochloride] the IC50 [1] was over 20 µg/mL and the MBC [2] was 5 µg/mL.

`C[C@@H]1N[C@H](CCCCCCCCCCc2cc(CCCCCCCCCC[C@@H]3CC[C@H](O)[C@@H](C)N3)c3[n+](c2)CCC3)CC[C@H]1O.[Cl-]` [Compound 1] was tested, and the “Cure (mice without parasitemia till day 28/total mice in group)” value ([3]; 1 mg/kg × 3 days, ip) was 0/5, the “Cure (mice without parasitemia till day 28/total mice in group)” value ([3]; 2 mg/kg × 3 days, ip) was 0/5 and the “toxicity observed due to treatment” value ([3]; 1 and 2 mg/Kg/day for 3 days, ip, mice) was “no significant toxicity”. The MIC [4] was 2.5 µg/mL and the “fold less toxic than amphotericin B in regard to hemolytic activity” value [5] was over 4 fold.

`C[C@H]1N[C@@H](CCCCCCCCCCC2=C[C@@H](CCCCCCCCCC[C@H]3CC[C@@H](O)[C@@H](C)N3)[C@@H]3CCCN3C2)CC[C@H]1O` [Compound 5, juliprosopine] showed an IC50 [6] of over 20 µg/mL, an MBC ([4]; ATCC23068, read-out: MBC, M. intracellulare) of 20 µg/mL (≈ 31.7 µM) and an MIC [4] of 20 µg/mL (≈ 31.7 µM).

In the case of `C[C@@H]1N[C@H](CCCCCCCCCCC2=C[C@@H](CCCCCCCCCC[C@@H]3CC[C@@H](O)[C@H](C)N3)[C@@H]3CCCN3C2)CC[C@H]1O.Cl.Cl` [Compound 7, Prosopilosine dihydrochloride], the IC50 [1] is reported as over 20 µg/mL, the IC50 [7] is reported as 3.1 µg/mL and the MFC ([8]; ATCC90113, read-out: MFC, C. neoformans) is reported as 5 µg/mL. The MIC ([8]; ATCC90113, read-out: MIC, C. neoformans) was 5 µg/mL, the IC50 [6] was over 20 µg/mL and the MBC [2] was 5 µg/mL. For the same compound, the MIC [2] was 5 µg/mL.

For `C[C@H]1N[C@@H](CCCCCCCCCCC2=C[C@@H](CCCCCCCCCC[C@@H]3CC[C@H](O)[C@@H](C)N3)[C@@H]3CCCN3C2)CC[C@H]1O.Cl.Cl` [Compound 8, Isoprosopilosine dihydrochloride], the MBC [2] was 5 µg/mL and the MIC [2] was 5 µg/mL.

Work on `O=C(O)c1cn(C2CC2)c2cc(N3CCNCC3)c(F)cc2c1=O` [Ciprofloxacin, reference compound] yielded an IC50 ([4]; ATCC23068, read-out: IC50, M. intracellulare) of 0.25 µg/mL (≈ 0.754 µM).

Work on `C[C@H]1N[C@@H](CCCCCCCCCCC2=C[C@@H](CCCCCCCCCC[C@@H]3CC[C@H](O)[C@@H](C)N3)[C@@H]3CCCN3C2)CC[C@H]1O` [Compound 3, Isoprosopilosine] yielded an IC50 [9] of under 1.1 µg/mL, an IC50 [6] of over 20 µg/mL and an MIC [4] of 5 µg/mL (≈ 7.94 µM).

`C[C@@H]1N[C@H](CCCCCCCCCCC2=C[C@@H](CCCCCCCCCC[C@@H]3CC[C@@H](O)[C@H](C)N3)[C@@H]3CCCN3C2)CC[C@H]1O` [Compound 2, 6,8-bis-[(2R,5R,6R)-5-hydroxy-6-methylpiperidin-2-yl]decyl-[8R,8aS]-6,7-dehydroindolizidine] was tested, and the IC50 [9] was under 1.1 µg/mL, the MIC [4] was 5 µg/mL (≈ 7.94 µM) and the MBC [2] was 10 µg/mL (≈ 15.9 µM). The MIC [2] was 2.5 µg/mL (≈ 3.97 µM).

`C[C@@H]1[C@H](O)[C@@H](C)/C=C/C=C/C=C/C=C/C=C/C=C/C=C/[C@H](O[C@@H]2O[C@H](C)[C@@H](O)[C@H](N)[C@@H]2O)C[C@@H]2O[C@](O)(C[C@@H](O)C[C@@H](O)[C@H](O)CC[C@@H](O)C[C@@H](O)CC(=O)O[C@H]1C)C[C@H](O)[C@H]2C(=O)O` [Amphotericin B] showed an IC50 [10] of over 25 µg/mL.

In the case of `CCO[C@H]1O[C@@H]2O[C@@]3(C)CC[C@H]4[C@H](C)CC[C@@H]([C@H]1C)[C@@]24OO3` [β-Arteether, β-arteether, reference compound], the “Cure (mice without parasitemia till day 28/total mice in group)” value ([3]; 10 mg/kg × 3 days) is reported as 5/5.

Work on `CCN(CC)CCCC(C)Nc1ccnc2cc(Cl)ccc12` (stereo not drawn) [Chloroquine, chloroquine, reference compound] yielded an IC50 [11] of 0.017 µg/mL (≈ 0.0531 µM).

With `C[C@@H]1N[C@H](CCCCCCCCCCc2cc(CCCCCCCCCC[C@H]3CC[C@@H](O)[C@@H](C)N3)c[n+]3c2CCC3)CC[C@H]1O` [Compound 4, Isoprosopilosidine] the IC50 [7] was 0.8 µg/mL, the IC50 [6] was over 20 µg/mL and the IC50 [11] was 0.042 µg/mL.
